# Data taken from patent publication US20080131920A1, “Ion flux in biological processes, and methods related thereto” (priority 2005, published 2008).
# “And” between values parts separate entries of the source, which are not always exact repeats. Equal entries are not always repeated.
# How the values were obtained:
# H3P-positive cells = experiment: H3P-positive proliferating cell quantification in amputated larvae; type: in vivo, Xenopus laevis; conditions: for Average count of H3P-positive cells / Individual counts of H3P-positive cells: medial (flank) region
# Description: To gain insight into the cellular mechanisms by which the V-ATPase participates in regeneration, we characterized the pattern of proliferating cells during regeneration, using an antibody to the phosphorylated Histone 3B—a standard marker of cells in the G2/M transition of the cell cycle, useful for identifying mitotic cells in regenerating systems including Xenopus (Saka and Smith, 2001, Dev Biol 229: 307-18; Sanchez Alvarado, 2003, Current Opinion in Genetics & Development 13: 438-444). At 24 hpa, this subset of proliferating cells is homogenously distributed throughout the growing tail (FIG. 14A). […]. […].
# H3P staining marks cells in the G2/M transition of the cell cycle, and is commonly used for identifying mitotic cells in regenerating systems including Xenopus (Saka and Smith, 2001, Dev Biol 229: 307-18; Sanchez Alvarado, 2003, Current Opinion in Genetics & Development 13: 438-444). Fixed specimens at the stages indicated were processed for H3P staining as above using an alkaline-phosphatase secondary. Bleaching of the natural pigments in samples allowed easy counting of H3P-positive cells. The close-up panel to the left illustrates the distinction between purple alkaline-phosphatase signal (H3P-positive nuclei) and brown melanocytes. […] Between 4 and 6 samples were counted for each stage and each condition. Similar numbers were obtained in immunohistochemistry performed on sections as in wholemounts and in fluorescent detection (i.e., reagent penetration and chromogenic staining are not confounding factors in H3P-positive cell detection). […]
# [1] = test system: Sonic hedgehog (Shh), Nodal; experiment: Sidedness of Shh and Nodal expression in chick embryos (in ovo culture, in situ hybridization); conditions: in vivo
# Description: We examined the effect of inhibiting H^+-V-ATPase activity on the expression of the early left-sided marker Sonic hedgehog (Shh). Inhibition of H^+-V-ATPase activity following treatment with concanamycin or DCCD specifically randomized the expression of Shh, as well as that of and the downstream marker Nodal. Compared to controls, in which these two markers are always left-sided, concanamycin induced aberrant sidedness of Shh expression in 67% and Nodal in 24% of embryos. Thus, as in Xenopus, H^+-V-ATPase is upstream of the known asymmetric gene cascade, and is required for normal LR patterning in chicks.
# To perform a pharmacological screen on chick embryos with minimal disturbance to normal morphogenesis, we optimized a chicken in ovo culture system. A small hole was made on the top of each egg (prior to incubation), and 5 ml of light albumin was removed. […]. Eggs were securely wrapped with Scotch tape, incubated at 37.5° C. to the desired stages, then fixed for analysis of laterality markers by in situ hybridization.
# (§1) Whole mount in situ hybridization (WISH) on Xenopus was performed according to standard methods. DNA used to transcribe in situ hybridization probes were XNr-1 (Lohr et al., 1998, Developmental Genetics 23: 194-202; Lowe et al., 1996, Nature 381: 158-161); cShh (Levin et al., 1995, Cell 82: 803-814); cNodal (Levin et al., 1995, Cell 82: 803-814).
# XNr-1 = experiment: Left-sided XNr-1 expression by whole mount in situ hybridization; design: species or system Xenopus laevis; conditions: in vivo
# Protocol: As outlined above, effects on asymmetry were initially evaluated by inspection of embryo morphology. […] Embryos were treated with the H^+-V-ATPase inhibitory compound concanamycin.
# as §1
# [2] = test system: H+ flux from living early blastomeres; experiment: Self-referencing ion-selective (Seris) probe measurement of H+ flux; design: species or system Xenopus laevis; conditions: in vivo
# Description: We examined ion flux using a self-referencing ion probe to measure H^+ flux from living early blastomeres. The H^+-V-ATPase endogenously acts to pump protons out of the cell (e.g., it mediates proton efflux). We note, however, that other ion transporters modulate influx of ions. The term ion flux refers to movement of ions across membranes, regardless of the direction. The techniques provided herein can be used to evaluate changes in either ion efflux or influx, and thus can generally be used to evaluate ion flux and changes in ion flux following manipulation of an ion transporter protein or a class of ion transporter proteins.
# To confirm that the asymmetric efflux was due to asymmetric H^+-V-ATPase function, we compared H^+ efflux in control embryos to efflux from embryos treated with a variety of ion flux inhibitors.
# The self-referencing ion-selective (Seris) probe consists of an ion selective microelectrode that is translated between two points in the extracellular space near the plasma membrane of a cell. If a net flux of ion into or out of the cell is detected, the resultant concentration gradient will be detected as a voltage difference from which the ion flux through the membrane can be calculated. […]. […]
# primitive streak cells = experiment: Cellular pH imaging of early chick blastoderm with SNARF-1-AM; type: in vivo
compound,measurement,setting,value
C/C=C/[C@H]1O[C@@](O)([C@@H](C)[C@H](O)[C@H](C)[C@H]2OC(=O)/C(OC)=C/C(C)=C/[C@@H](C)[C@@H](O)[C@@H](CC)[C@@H](O)[C@H](C)C/C(C)=C/C=C/[C@@H]2OC)C[C@@H](O)[C@@H]1C [concanamycin],Average count of H3P-positive cells,H3P-positive cells; 24 hpa,51
same,Individual counts of H3P-positive cells,H3P-positive cells; 24 hpa,79 and 26 and 45 and 53
same,Average count of H3P-positive cells,H3P-positive cells; 48 hpa,49
same,Individual counts of H3P-positive cells,H3P-positive cells; 48 hpa,39 and 58 and 51 and 46
same,reduction in the number of proliferating cells,"H3P-positive cells; by 24 hpa, general (flank)",3 fold
same,change in number of proliferating cells in the mid-flank between 24 and 48 hpa,H3P-positive cells; in vivo,does not change significantly
same,"aberrant sidedness of Nodal expression, % of embryos",[1],24%
same,"aberrant sidedness of Shh expression, % of embryos",[1],67%
same,expression of Shh and Nodal (sidedness),[1],randomized
same,left-sided gene expression of XNr-1,XNr-1,perturbed the normally left-sided gene expression
same,left/right asymmetry in the proton fluxes,[2],eliminated
same,proton efflux on the right side,[2],about half of its original value
same,pH of cells in the primitive streak,primitive streak cells,lowered the pH
